Assay results: paper PMC11222147, “Host defence peptide plectasin targets bacterial cell wall precursor lipid II by a calcium-sensitive supramolecular mechanism” (Nature Microbiology, 2024)
Where a SMILES comes first, the peptide text is derived from it. Bridges are numbered along the chain shown (N, C = ends).

Columns and labels:
S. simulans 22 = assay: MIC assays under standard conditions; format: cell-based, Staphylococcus simulans; settings: Supplementary Table 1; cation-adjusted MHB, 37 °C, 16–20 h
How it was run: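 Broth microdilution in cation-adjusted MHB, inoculum from OD600 0.5 TSB culture diluted 100-fold, 37 °C with shaking. Streptococci: 5% lysed horse blood, 5% CO2, MIC read visually at 20–24 h; S. simulans read at 16–20 h.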

S. pneumoniae ATCC6305 = assay: MIC assays under standard conditions; format: cell-based, Streptococcus pneumoniae; settings: Supplementary Table 1; cation-adjusted MHB + 5% lysed horse blood, 5% CO2, 20–24 h
Method: Plectasin and analogues were serially diluted in cation-adjusted Mueller–Hinton broth (MHB) in round-bottom polypropylene 96-well plates (50 µl per well). Selected bacterial strains were grown from glycerol stocks on blood agar plates. Individual colonies were inoculated in TSB and incubated at 37 °C while shaking until OD600 reached 0.5. Bacterial suspensions were then diluted 100 times in cation-adjusted MHB and distributed (50 μl per well) over the microplate containing the diluted plectasin solutions. Plates were covered by a gas-permeable adhesive membrane and incubated at 37 °C while shaking. MICs were determined by visual inspection after 16–20 h (Staphylococcus) or 20–24 h (Streptococcus). For Streptococcus strains, the broth was additionally supplemented with 5% lysed horse blood, and the microplates were incubated under 5% CO2 atmosphere. In the assays, we used the following strains: S. simulans, S. pneumoniae serotype 8, S. pneumoniae ATCC6305 and Streptococcus pyogenes M3.

[1] = Confocal microscopy of GUVs doped with Und-NBD-lipid II; settings: GUVs 0.4 mol% Und-NBD-LII in DOPC, 1 μM antibiotic
Method: GUVs were prepared by electroformation using in-house build Teflon cells with two titanium wires as electrodes. About 1 μl of 0.5 mM DOPC with 0.4 mol% NBD–lipid II in 2:1 CHCl3/MeOH was brushed on both electrodes and thoroughly dried under vacuum. Next, the cell was filled with 350 μl 300 mM sucrose, and GUVs were formed by applying an oscillating voltage (sine wave, 2 V, 10 Hz) for 90 min and released from the electrodes (square wave, 2 V, 2 Hz). Microscopy slides were precoated using a 1 mg ml^−1 BSA solution. Slides were filled with 300 μl 300 mM glucose solution, followed by addition of the antibiotic and finally 30–50 μl GUV solution. The GUVs were imaged using a Zeiss LSM 880 confocal microscope with a ×63/1.2NA glycerol objective lens. Green fluorescence (530–545 nm) was detected after excitation with a 488 nm laser.

Compound | Minimum inhibitory concentration, S. simulans (S. simulans 22) | Minimum inhibitory concentration, S. pneumoniae ATCC6305 (S. pneumoniae ATCC6305) | lipid II cluster/domain formation on GUVs [1]
CC[C@H](C)[C@@H]1NC(=O)[C@H](CO)NC(=O)[C@H](CCCCN)NC(=O)[C@@H]2CSSC[C@@H](C(=O)N[C@@H](Cc3ccc(O)cc3)C(=O)O)NC(=O)[C@H](CCCCN)NC(=O)[C@@H]3CSSC[C@H](NC(=O)[C@H](CCC(N)=O)NC(=O)[C@H](CCSC)NC(=O)[C@H](CC(=O)O)NC(=O)[C@H](CC(=O)O)NC(=O)[C@H](CCC(=O)O)NC(=O)[C@H](CC(=O)O)NC(=O)[C@H](Cc4c[nH]c5ccccc45)NC(=O)[C@@H]4CCCN4C(=O)CNC(=O)[C@H](CC(N)=O)NC(=O)[C@@H](NC(=O)CNC(=O)[C@H](Cc4ccccc4)NC(=O)CN)CSSC[C@H](NC(=O)[C@H](Cc4ccccc4)NC(=O)CNC(=O)CNC(=O)[C@H](CCCCN)NC(=O)[C@H](Cc4ccc(O)cc4)NC(=O)CNC(=O)[C@H](CCCCN)NC1=O)C(=O)N[C@@H](C)C(=O)N[C@@H](CCCCN)C(=O)NCC(=O)NCC(=O)N[C@@H](Cc1ccccc1)C(=O)N[C@@H](C(C)C)C(=O)N3)C(=O)N[C@@H](Cc1c[nH]cn1)C(=O)N[C@@H](CC(N)=O)C(=O)N[C@@H](Cc1c[nH]cn1)C(=O)N2 [Y29F] (H-GFGCNGPWDEDDMQCHNHCKSIKGYKGGFCAKGGFVCKCY-OH; disulfide 4-30, 15-37, 19-39 (inferred); N-terminus and C-terminus assumed) | 1,56 μg/mL | ≤ 0.78 µg/mL | –
CC[C@H](C)[C@@H]1NC(=O)[C@H](CO)NC(=O)[C@H](CCCCN)NC(=O)[C@@H]2CSSC[C@@H](C(=O)N[C@@H](Cc3ccc(O)cc3)C(=O)O)NC(=O)[C@H](CCCCN)NC(=O)[C@@H]3CSSC[C@H](NC(=O)[C@H](CCC(N)=O)NC(=O)[C@H](CCSC)NC(=O)[C@H](CC(=O)O)NC(=O)[C@H](CC(=O)O)NC(=O)[C@H](CCC(=O)O)NC(=O)[C@H](CC(=O)O)NC(=O)[C@H](Cc4c[nH]c5ccccc45)NC(=O)[C@@H]4CCCN4C(=O)CNC(=O)[C@H](CC(N)=O)NC(=O)[C@@H](NC(=O)CNC(=O)[C@H](Cc4ccccc4)NC(=O)CN)CSSC[C@H](NC(=O)[C@H](CCCNC(=N)N)NC(=O)CNC(=O)CNC(=O)[C@H](CCCCN)NC(=O)[C@H](Cc4ccc(O)cc4)NC(=O)CNC(=O)[C@H](CCCCN)NC1=O)C(=O)N[C@@H](C)C(=O)N[C@@H](CCCCN)C(=O)NCC(=O)NCC(=O)N[C@@H](Cc1ccccc1)C(=O)N[C@@H](C(C)C)C(=O)N3)C(=O)N[C@@H](Cc1c[nH]cn1)C(=O)N[C@@H](CC(N)=O)C(=O)N[C@@H](Cc1c[nH]cn1)C(=O)N2 [Y29R] (H-GFGCNGPWDEDDMQCHNHCKSIKGYKGGRCAKGGFVCKCY-OH; disulfide 4-30, 15-37, 19-39 (inferred); N-terminus and C-terminus assumed) | 1,56 μg/mL | 1,56 μg/mL | –
CC[C@H](C)[C@@H]1NC(=O)[C@H](CO)NC(=O)[C@H](CCCCN)NC(=O)[C@@H]2CSSC[C@@H](C(=O)N[C@@H](Cc3ccccc3)C(=O)O)NC(=O)[C@H](CCCCN)NC(=O)[C@@H]3CSSC[C@H](NC(=O)[C@H](CCC(N)=O)NC(=O)[C@H](CCSC)NC(=O)[C@H](CC(=O)O)NC(=O)[C@H](CC(=O)O)NC(=O)[C@H](CCC(=O)O)NC(=O)[C@H](CC(=O)O)NC(=O)[C@H](Cc4c[nH]c5ccccc45)NC(=O)[C@@H]4CCCN4C(=O)CNC(=O)[C@H](CC(N)=O)NC(=O)[C@@H](NC(=O)CNC(=O)[C@H](Cc4ccccc4)NC(=O)CN)CSSC[C@H](NC(=O)[C@H](Cc4ccc(O)cc4)NC(=O)CNC(=O)CNC(=O)[C@H](CCCCN)NC(=O)[C@H](Cc4ccc(O)cc4)NC(=O)CNC(=O)[C@H](CCCCN)NC1=O)C(=O)N[C@@H](C)C(=O)N[C@@H](CCCCN)C(=O)NCC(=O)NCC(=O)N[C@@H](Cc1ccccc1)C(=O)N[C@@H](C(C)C)C(=O)N3)C(=O)N[C@@H](Cc1c[nH]cn1)C(=O)N[C@@H](CC(N)=O)C(=O)N[C@@H](Cc1c[nH]cn1)C(=O)N2 [Y40F] (H-GFGCNGPWDEDDMQCHNHCKSIKGYKGGYCAKGGFVCKCF-OH; disulfide 4-30, 15-37, 19-39 (inferred); N-terminus and C-terminus assumed) | 1,56 μg/mL | 0,78 μg/mL | –
CC[C@H](C)[C@@H]1NC(=O)[C@H](CO)NC(=O)[C@H](CCCCN)NC(=O)[C@@H]2CSSC[C@@H](C(=O)N[C@@H](CCCNC(=N)N)C(=O)O)NC(=O)[C@H](CCCCN)NC(=O)[C@@H]3CSSC[C@H](NC(=O)[C@H](CCC(N)=O)NC(=O)[C@H](CCSC)NC(=O)[C@H](CC(=O)O)NC(=O)[C@H](CC(=O)O)NC(=O)[C@H](CCC(=O)O)NC(=O)[C@H](CC(=O)O)NC(=O)[C@H](Cc4c[nH]c5ccccc45)NC(=O)[C@@H]4CCCN4C(=O)CNC(=O)[C@H](CC(N)=O)NC(=O)[C@@H](NC(=O)CNC(=O)[C@H](Cc4ccccc4)NC(=O)CN)CSSC[C@H](NC(=O)[C@H](Cc4ccc(O)cc4)NC(=O)CNC(=O)CNC(=O)[C@H](CCCCN)NC(=O)[C@H](Cc4ccc(O)cc4)NC(=O)CNC(=O)[C@H](CCCCN)NC1=O)C(=O)N[C@@H](C)C(=O)N[C@@H](CCCCN)C(=O)NCC(=O)NCC(=O)N[C@@H](Cc1ccccc1)C(=O)N[C@@H](C(C)C)C(=O)N3)C(=O)N[C@@H](Cc1c[nH]cn1)C(=O)N[C@@H](CC(N)=O)C(=O)N[C@@H](Cc1c[nH]cn1)C(=O)N2 [Y40R] (H-GFGCNGPWDEDDMQCHNHCKSIKGYKGGYCAKGGFVCKCR-OH; disulfide 4-30, 15-37, 19-39 (inferred); N-terminus and C-terminus assumed) | > 50 µg/mL | > 50 µg/mL | –
copsin | – | – | caused the formation of lipid II domains in liposomes
ramoplanin | – | – | caused the formation of lipid II domains in liposomes
teicoplanin | – | – | caused the formation of lipid II domains in liposomes
